Measurements as given in PMC7385619, “A triple action CDK4/6-PI3K-BET inhibitor with augmented cancer cell cytotoxicity” (Cell Discovery, 2020).

Assays:
Format in all cases: cell-based
[1] = system: Hepatocellular carcinoma cells (Hep3B, HepG2, and Huh7); assay: Cell viability (cytotoxicity) assay, hepatocellular carcinoma cells; conditions: Homo sapiens; 48 hours, CCK8 or Alamar Blue; curves of Fig. 1f-j; read-out: Half maximal inhibitory concentration (IC50) in cell line cytotoxicity assays, Hepatocellular Carcinoma
[2] = system: neuroblastoma cells (CHLA-255, CHLA-136, and SMS-KNCR); assay: Cell viability (cytotoxicity) assay, neuroblastoma cells; conditions: Homo sapiens, 48 hours, CCK8 or Alamar Blue, curves of Fig. 1f-j, read-out: Half maximal inhibitory concentration (IC50) in cell line cytotoxicity assays, Neuroblastoma
[3] = system: mantle cell lymphoma (Granta-519, Mino, and Jeko-1); assay: Cell viability (cytotoxicity) assay, mantle cell lymphoma cells; conditions: Homo sapiens; 48 hours, CCK8 or Alamar Blue; curves of Fig. 1f-j; read-out: Half maximal inhibitory concentration (IC50) in cell line cytotoxicity assays, Mantle Cell Lymphoma

Structure (SMILES): CC(=O)c1c(C)c2cnc(Nc3ccc(N4CCNCC4)cn3)nc2n(C2CCCC2)c1=O [Palbociclib, reference compound]
- IC50 [1]: 11.9 µM
- IC50 [2]: 9.2 µM
- IC50 [3]: 8.4 µM
